Target: HSD17B13 (Homo sapiens (Human), UniProt Q7Z5P4)
Assay: LC/MS estrone detection assay: conversion of estradiol to estrone by HSD17B13
Format: biochemical
Conditions: 4 μM estradiol, 6 mM NAD+, 30 nM HSD17B13 enzyme (E. coli expressed His-tagged), 2 hours at 26.5° C.
Protocol: The liquid chromatography/mass spectrometry (LC/MS) estrone detection assay monitors the conversion of estradiol to estrone by HSD17B13. This assay was undertaken in a 96wp format (Eppendorf deep well Plate 96/500) in an 80 μl reaction volume containing: 4 μM of Estradiol (E2; Cayman; Ser. No. 10/006,315), 6 mM NAD+(Sigma; #N0623) and 30 nM HSD17B13 enzyme (in-house; E. coli expressed His-tagged, purified, soluble protein) in a reaction containing […] potassium phosphate buffer pH 7.4, with 0.5% vehicle (DMSO). Reactions were incubated for 2 hours at 26.5° C., and estradiol (E2) conversion to estrone (E1) was quantitated by LC-MS/MS based analyte detection for both E2 and E1 using LCMS grade reagents.
Reactions were terminated by the addition of two volumes of acetonitrile (MeCN; LCMS grade; CAS #75/05/8) containing deuterated (D4)-E1 used as internal standard (Clear Synth; #CS-T-54273; 500 ng/mL final concentration). Samples were applied to pre-prepared Bond Elut-C18 extraction cartridges (3 mL; Agilent; Ser. No. 12/102,028), washed and eluted in MeCN. Eluates were dried under nitrogen and re-suspended in 60% methanol (LCMS grade methanol; CAS #67/56/1) before submission for analysis. Aqueous linearity for E2 and E1 were included for quantification.
Analysis of samples was undertaken on a XBridge BEH C18 column (Waters; #186003033) using 0.1% Diethyl Amine in MeCN (mobile phase A; DEA CAS #109-89-7) and 0.1% Diethyl Amine in milli-Q water (mobile phase B) in a 3 min gradient allowing 25% B. Analytes were detected in negative mode using MRM analysis, with E2 having a RT of 1.85 min and E1 having a RT of 2 min. Activity of the enzyme, in the absence of NAD^+, was used to evaluate specificity of conversion. Enzyme activity in the presence of test samples was expressed as a percentage of the uninhibited enzyme activity, and plotted versus inhibitor concentration. Non-linear regression was performed using a four-parameter logistic model and GraphPad Prism software (GraphPad Software, La Jolla, Calif.). All assessments were undertaken in duplicate evaluations and pooled during extraction process and subsequently injected as duplicates for LC-MS/MS analysis.

Sequence of HSD17B13 (Q7Z5P4 20-300): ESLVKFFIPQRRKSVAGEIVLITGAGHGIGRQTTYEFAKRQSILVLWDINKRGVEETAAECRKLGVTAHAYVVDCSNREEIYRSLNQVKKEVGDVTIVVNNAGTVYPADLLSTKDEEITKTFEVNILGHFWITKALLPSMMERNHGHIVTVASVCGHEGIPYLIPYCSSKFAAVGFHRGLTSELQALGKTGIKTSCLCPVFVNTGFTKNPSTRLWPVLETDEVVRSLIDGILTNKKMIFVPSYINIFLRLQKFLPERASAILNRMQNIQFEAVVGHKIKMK

Row | IC50 | SMILES
1 | 500 to 1000 nM | CC(C)(C)n1ccc(Cn2cnc3cccc(NC(=O)c4cc(Cl)c(O)c(Cl)c4)c3c2=O)n1 [Example 52, N-(3-((1-(tert-butyl)-1H-pyrazol-3-yl)methyl)-4-oxo-3,4-dihydroquinazolin-5-yl)-3,5-dichloro-4-hydroxybenzamide]
2 | 100 to 500 nM | O=C(Nc1cccc2ncn(C3(c4ccccc4F)CC3)c(=O)c12)c1cc(Cl)c(O)c(Cl)n1 [Example 72, 4,6-dichloro-N-(3-(1-(2-fluorophenyl)cyclopropyl)-4-oxo-3,4-dihydroquinazolin-5-yl)-5-hydroxypicolinamide]
3 | ≤ 100 nM | C[C@@H](c1cccc(F)c1)n1cnc2cccc(NC(=O)c3cc(Cl)c(O)c(Cl)n3)c2c1=O [Example 41, 4,6-dichloro-N-{3-[(1S)-1-(3-fluorophenyl)ethyl]-4-oxo-3,4-dihydroquinazolin-5-yl}-5-hydroxypyridine-2-carboxamide]
4 | 500 to 1000 nM | O=C(Nc1scnc1C(=O)NCc1cccc(C(F)(F)F)n1)c1cc(Cl)c(O)c(Cl)c1 [Example 198, 5-(3,5-dichloro-4-hydroxybenzamido)-N-((6-(trifluoromethyl)pyridin-2-yl)methyl)thiazole-4-carboxamide]
5 | ≤ 100 nM | O=C(Nc1ccc(F)c2ncn(Cc3ccccc3C(F)(F)F)c(=O)c12)c1cc(Cl)c(O)c(Cl)n1 [Example 206, 4,6-dichloro-N-(8-fluoro-4-oxo-3-(2-(trifluoromethyl)benzyl)-3,4-dihydroquinazolin-5-yl)-5-hydroxypicolinamide]
6 | ≤ 100 nM | O=C(Nc1cccc2ncn(Cc3ncccc3C(F)(F)F)c(=O)c12)c1cc(Cl)c(O)c(Cl)c1 [Example 75, 3,5-dichloro-4-hydroxy-N-(4-oxo-3-((3-(trifluoromethyl)pyridin-2-yl)methyl)-3,4-dihydroquinazolin-5-yl)benzamide]
7 | 100 to 500 nM | O=C(Nc1cccc2ncn(Cc3ccn(-c4ccccc4)n3)c(=O)c12)c1cc(Cl)c(O)c(Cl)c1 [Example 77, 3,5-dichloro-4-hydroxy-N-(4-oxo-3-((1-phenyl-1H-pyrazol-3-yl)methyl)-3,4-dihydroquinazolin-5-yl)benzamide]
8 | ≤ 100 nM | COc1ccccc1CCNC(=O)c1sccc1NC(=O)c1cc(Cl)c(O)c(Cl)c1 [Example 35, 3-(3,5-dichloro-4-hydroxybenzamido)-N-(2-methoxyphenethyl)thiophene-2-carboxamide]
9 | 100 to 500 nM | COc1ccccc1Cn1cnc2cccc(NC(=O)c3cc(Cl)c(O)c(Cl)c3)c2c1=O [Example 5, 3,5-dichloro-4-hydroxy-N-(3-(2-methoxybenzyl)-4-oxo-3,4-dihydroquinazolin-5-yl)benzamide]
10 | 100 to 500 nM | O=C(Nc1cccc2ncn(Cc3ccccc3)c(=O)c12)c1cc(Cl)c(O)c(Cl)c1 [Example 1, N-(3-benzyl-4-oxo-3,4-dihydroquinazolin-5-yl)-3,5-dichloro-4-hydroxybenzamide]
11 | 100 to 500 nM | O=C(Nc1csc2ncn(Cc3ccccc3)c(=O)c12)c1cc(Cl)c(O)c(Cl)c1 [Example 97, N-(3-benzyl-4-oxo-3,4-dihydrothieno[2,3-d]pyrimidin-5-yl)-3,5-dichloro-4-hydroxybenzamide]
12 | 100 to 500 nM | Cc1nsc(NC(=O)c2cc(Cl)c(O)c(Cl)n2)c1C(=O)NCc1ccccc1F [Example 114, 5-(4,6-dichloro-5-hydroxypicolinamido)-N-(2-fluorobenzyl)-3-methylisothiazole-4-carboxamide]
13 | 100 to 500 nM | O=C(Nc1ncsc1C(=O)NC1(c2ccc(F)cc2)CC1)c1cc(Cl)c(O)c(Cl)c1 [Example 29, 4-(3,5-dichloro-4-hydroxybenzamido)-N-(1-(4-fluorophenyl)cyclopropyl)thiazole-5-carboxamide]
14 | 100 to 500 nM | O=C(Nc1cccc2ncn(C(CN3CCOCC3)c3ccccc3)c(=O)c12)c1cc(Cl)c(O)c(Cl)c1 (centres unmarked) [Example 123, 3,5-dichloro-4-hydroxy-N-(3-(2-morpholino-1-phenylethyl)-4-oxo-3,4-dihydroquinazolin-5-yl)benzamide]
